Measured values reported in paper PMC10381486, “Hydantoanabaenopeptins from Lake Kinneret Microcystis Bloom, Isolation, and Structure Elucidation of the Possible Intermediates in the Anabaenopeptins Biosynthesis” (Marine Drugs, 2023).

Key:
chymotrypsin = chymotrypsin (Bos taurus, UniProt P00766); assay: Chymotrypsin inhibition assay (SGGPNA substrate, 96-well plate); type: biochemical; conditions: Tris buffer pH 7.5, 5 min pre-incubation at 37 °C, kinetic absorbance at 405 nm over 30 min
Experimental: […] Assays were performed in a 96-well plate format.
The assay was performed in a Tris buffer (0.6 gr TRIS HCl/100 mL H2O, pH 7.5). The enzyme and the substrate Suc-Gly-Gly-phenylalanine-p-nitroanilide (SGGPNA) were dissolved in the buffer at a concentration of 1 mg/mL. To each well were added 100 μL of buffer, 10 μL of enzyme, and 10 μL of sample. Then, the plate was placed in the spectrophotometer for a 5 min incubation at 37 °C. Thereafter, to each well, 100 μL of substrate solution was added, and the plate was placed in the spectrophotometer for the kinetic measurement of the absorbance intensity over 30 min at a wavelength of 405 nm.

trypsin = biological target: T1, trypsin (Bos taurus, UniProt P00760); assay: Trypsin inhibition assay (BAPNA substrate, 96-well plate); type: biochemical; conditions: Tris buffer pH 7.5, 5 min pre-incubation at 37 °C, kinetic absorbance at 405 nm over 30 min
T1 construct: gene PRSS1
T1 sequence (P00760 24-246): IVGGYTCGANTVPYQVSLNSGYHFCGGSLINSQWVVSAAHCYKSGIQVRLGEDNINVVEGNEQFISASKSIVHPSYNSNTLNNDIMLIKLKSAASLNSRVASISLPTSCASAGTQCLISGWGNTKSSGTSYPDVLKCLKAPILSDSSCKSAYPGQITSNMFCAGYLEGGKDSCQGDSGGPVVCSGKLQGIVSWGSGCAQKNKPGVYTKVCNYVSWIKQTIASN
Experimental: The samples for biological assays were dissolved in DMSO at a concentration of 1 mg/mL and were tested for inhibition of the proteases at a single concentration: 1 […]. Assays were performed in a 96-well plate format.
The assay was performed in a Tris buffer (0.6 g Tris HCl in 100 mL H2O, pH 7.5). Benzoyl-L-arginine-p-nitroanilide hydrochloride (BAPNA), the trypsin substrate, was dissolved at 1 mg/mL in 1:9 DMSO/buffer. The enzyme was dissolved in buffer at 1 mg/mL. To each well were added 100 μL of buffer, 10 μL of enzyme, and 10 μL of sample. The plate was placed in the spectrophotometer at 37 °C. After 5 min, 100 μL of substrate solution was added to each well, and the plate was placed in the spectrophotometer for the kinetic measurement of the absorbance intensity over 30 min at a wavelength of 405 nm.

Substance: Dht-CO-cyclo-[Lys-Val-Hty-NMeAla-Phe] (lariat or depsi) [Compound 5, ^1[Dht]-anabaenopeptin A, new anabaenopeptin with dihomotyrosine at position 1]
- inhibition of the serine protease chymotrypsin (chymotrypsin; single concentration 53.3 μM): nonactive

Substance: Hydanto-oscillamide Y [Compound 4]
- inhibition of the serine protease chymotrypsin (chymotrypsin; single concentration 54.2 μM): nonactive

Substance: Hydantoanabaenopeptin B [Compound 2]
- inhibition of the serine protease trypsin (trypsin; single concentration 55.6 μM): nonactive

Substance: Phe, NMeAla, Hty, Ile, Lys, and Arg (lariat or depsi) [Compound 3, Hydantoanabaenopeptin F, hydantoin derivative of anabaenopeptin F isolated from Lake Kinneret Microcystis bloom]
- inhibition of the serine protease trypsin (trypsin; single concentration 54.6 μM): nonactive

Substance: cyclo-(Phe-NMeAla-Hty-Val-Lys-ε-NH)- (lariat or depsi) [Compound 1, Hydantoanabaenopeptin A, hydantoin derivative of anabaenopeptin A isolated from Lake Kinneret Microcystis bloom]
- inhibition of the serine protease chymotrypsin (chymotrypsin; single concentration 55.1 μM): nonactive

Substance: hydanto-Dht-[Lys-Val-Hty-NMeAla-Phe] (lariat or depsi) [Compound 6, ^1[Dht]-hydantoanabaenopeptin A, hydantoin derivative of 1[Dht]-anabaenopeptin A]
- inhibition of the serine protease chymotrypsin (chymotrypsin; single concentration 53.3 μM): nonactive
